Assay results published in ChEMBL document CHEMBL3046051, “A novel approach to the synthesis of 1,2,3-triazoles and their SAR studies” (2010).

Tests used:
Type in all cases: functional
Aspergillus niger [1] = experiment: Antifungal activity against Aspergillus niger 281 by paper disk method relative to voriconazole
Aspergillus flavus [2] = experiment: Antifungal activity against Aspergillus flavus 871 by paper disk method relative to voriconazole
Candida albicans [3] = experiment: Antifungal activity against Candida albicans 227 by paper disk method relative to voriconazole
Wickerhamiella azyma [4] = experiment: Antifungal activity against Candida azyma 1452 by paper disk method relative to voriconazole
Aspergillus niger [5] = experiment: Antifungal activity against Aspergillus niger 281 by paper disk method
Wickerhamiella azyma [6] = experiment: Antifungal activity against Candida azyma 1452 by paper disk method
Aspergillus flavus [7] = experiment: Antifungal activity against Aspergillus flavus 871 by paper disk method
Candida albicans [8] = experiment: Antifungal activity against Candida albicans 227 by paper disk method

| SMILES | inhibition (INH) (Aspergillus niger [1]) | inhibition (INH) (Aspergillus flavus [2]) | inhibition (INH) (Candida albicans [3]) | inhibition (INH) (Wickerhamiella azyma [4]) | inhibition zone (IZ) (Aspergillus niger [5]) | inhibition zone (IZ) (Wickerhamiella azyma [6]) | inhibition zone (IZ) (Aspergillus flavus [7]) | inhibition zone (IZ) (Candida albicans [8]) |
| --- | --- | --- | --- | --- | --- | --- | --- | --- |
| C=CN1C(C)=C(C(C)=O)NN1c1cccc([N+](=O)[O-])c1 | -33.33% | 13.33% | -6.25% | 0% | – | – | – | – |
| C=CN1C(C)=C(C(C)=O)NN1c1cccc(O)c1 | 11.11% | 40% | 18.75% | 26.67% | – | – | – | – |
| C=CN1C(C)=C(C(C)=O)NN1c1ccc(C)cc1 | -66.67% | -40% | -56.25% | -53.33% | – | – | – | – |
| C=CN1C(C)=C(C(C)=O)NN1c1ccccc1 | -33.33% | -13.33% | -31.25% | -26.67% | – | – | – | – |
| C=CN1C(C)=C(C(C)=O)NN1c1ccc(OC)cc1 | -44.44% | -20% | -37.5% | -33.33% | – | – | – | – |
| C=CN1C(C)=C(C(C)=O)NN1c1ccc(O)cc1 | 16.67% | 46.67% | 25% | 33.33% | – | – | – | – |
| C=CN1C(C)=C(C(C)=O)NN1c1ccc(Cl)cc1 | -94.44% | -66.67% | -87.5% | -80% | – | – | – | – |
| C=CN1C(C)=C(C(C)=O)NN1c1ccc([N+](=O)[O-])cc1 | -27.78% | 20% | 0% | 6.67% | – | – | – | – |
| C=CN1C(C)=C(C(C)=O)NN1c1cccc(Cl)c1 | -100% | -73.33% | -93.75% | -86.67% | – | – | – | – |
| C[C@@H](c1ncncc1F)[C@](O)(Cn1cncn1)c1ccc(F)cc1F [VORICONAZOLE] | – | – | – | – | 18 mm | 15 mm | 15 mm | 16 mm |
| C=CN1C(C)=C(C(C)=O)NN1c1cccc(OC)c1 | -50% | -26.67% | -43.75% | -40% | – | – | – | – |
| C=CN1C(C)=C(C(C)=O)NN1c1ccc(C(=O)O)cc1 | -11.11% | 33.33% | 6.25% | 6.67% | – | – | – | – |
| C=CN1C(C)=C(C(C)=O)NN1c1cccc(C)c1 | -72.22% | -46.67% | -62.5% | -60% | – | – | – | – |
